Laboratory results as given in US7491703B2, “Tetrapeptide regulating blood glucose level in diabetes mellitus” (“Access Bioscience” CJSC, priority 2003, dated 2009).
Residues, ends and D or L forms follow the SMILES beside them.

Assays:
[1] = tested on: rats with alloxan diabetes; experiment: Insulin level in blood of alloxan diabetes rats (Example 5); type: in vivo, rat
Experimental: The experiment was held on 18 white mongrel rats weighing an average 375±35 g. After the estimation of the blood glucose level all the animals were divided at random into 2 groups. Then all the animals were subjected to single intravenous injection with 1 ml of alloxan solution (“Spofa”) in dose of 35 mg/kg. 15 days later control animals were daily intraperitoneally administered with 0.3 ml of 0.9% NaCl solution, rats of the main group—with tetrapeptide Lys-Glu-Asp-Trp-NH2 [SEQ ID NO:1] in dose of 3 μg (in 0.3 ml of 0.9% NaCl) per rat during 11 days.

[2] = tested on: rats with alloxan diabetes; experiment: Course of alloxan diabetes in rats, treatment variant (Example 2); type: in vivo, rat; settings: for decrease of the blood glucose level: throughout the whole study
Experimental: The study was conducted on 21 white mongrel male rats with average body weight 375±35 g. After estimation of glucose concentration in the blood all the animals were divided at random into 2 groups. Then all the animals were exposed to single intravenous administration 1 ml of alloxan solution (“Spofa”) in dose 35 mg/kg. In 15 days control animals were administered once a day intraperitoneally with 0.3 ml 0.9% NaCl solution, rats of the main group were administered with Lys-Glu-Asp-Trp-NH2 [SEQ ID NO:1] in dose 3 μg (in 0.3 ml of 0.9% NaCl solution) per rat during 11 days.

[3] = tested on: rats with alloxan diabetes; experiment: Insulin effect on blood glucose level in alloxan diabetes rats after tetrapeptide course (Example 7); type: in vivo, rat
Experimental: The study was conducted on 13 male rats, enrolled in the previous trial (treatment variant—28 days after completion of Lys-Glu-Asp-Trp-NH2 [SEQ ID NO:1] tetrapeptide administration). 8 healthy rats of the similar body weight constituted a separate group. All the animals were administered intravenously with insulin (0.3 units) and glucose concentration in their blood was estimated hereafter.

[4] = tested on: patients with diabetes mellitus; experiment: Clinical application in patients with diabetes mellitus (Example 8); type: in vivo, human; settings: for blood glucose level on an empty stomach: 10 μg i.m. 10 days
Experimental: The investigation was carried out in 36 patients aged from 16 to 83 years (7 men, 29 women). In 23 patients there was diagnosed type 1 diabetes, in 13 patients—type 2 diabetes. The disease duration varied from 1 year to 30 years. 32 patients received insulin. The majority of the patients suffering diabetes mellitus entered the hospital decompensated. Blood glucose level in these patients on an empty stomach oscillated from […]; the glycosylated haemoglobin—from 7.8 to 12.7%. All the patients were prescribed a rigid diet. All the patients were stratified randomly into 2 groups, with respect to age, sex, duration and stage of the disease (Table 7). Alongside with standard method of treatment 16 patients were prescribed Lys-Glu-Asp-Trp-NH2 [SEQ ID NO:1] tetrapeptide in dose of 10 μg (in 1 ml of 0.9% NaCl solution) intramuscularly once a day for 10 days. 4 patients suffering type 2 diabetes mellitus were prescribed together with standard treatment course Lys-Glu-Asp-Trp-NH2 [SEQ ID NO:1] tetrapeptide in dose of 100 μg (1 tablet) twice a day before meals during 10 days. Patients of the control group were administered with 1 ml of 0.9% of NaCl solution as a placebo following the same scheme.

[5] = tested on: rats with alloxan diabetes; experiment: Glucose tolerance test (sugar curve) in alloxan diabetes rats (Example 6); type: in vivo, rat; settings: for glucose concentration in blood, glucose tolerance test: in mg/dL
Experimental: The study was conducted on 13 male rats, enrolled in the previous tests (treatment variants—44 days after completion of tetrapeptide Lys-Glu-Asp-Trp-NH2 [SEQ ID NO:1] administration). 7 healthy rats with the same body weight constituted a separate group. All the animals were administered intravenously with 1 ml of 2% glucose solution, after that glucose concentration in their blood was estimated.

[6] = Toxicity (experimentally proved)
[7] = 8 days since the onset of tetrapeptide administration, 3 μg per rat i.p. daily
[8] = 15 days after alloxan administration, before peptide
[9] = of 16 insulin-treated patients, 10 μg i.m. once a day for 10 days
[10] = tablets, patients treated with oral anti-diabetic medicine
[11] = 30 min after glucose administration
[12] = 60 min after glucose administration
[13] = 120 min after glucose administration

In the case of NCCCC[C@H](N)C(=O)N[C@@H](CCC(=O)O)C(=O)N[C@@H](CC(=O)O)C(=O)N[C@@H](Cc1c[nH]c2ccccc12)C(N)=O [Lys-Glu-Asp-Trp-NH2, lysyl-glutamyl-aspartyl-tryptophane amid] (H-KEDW-NH2), the animals alive ([1]; 70th day after alloxan administration (control 62.5%)) is reported as 70%, the “Insulin content in blood” value ([1]; 1 day after the completion of tetrapeptide administration) is reported as 3.6 ± 0.7 mkIU/ml and the “insulin content in the blood, higher than in the control group” value ([1]; 8 days of substance administration) is reported as 3.9 fold. The “Insulin content in blood” value [1, 7] was 3.1 ± 1.1 mkIU/ml, the “Insulin content in blood” value ([1]; 9 days after the completion of tetrapeptide administration) was 3.2 ± 0.5 mkIU/ml and the “Insulin content in blood” value [1, 8] was 1.5 ± 0.4 mkIU/ml. The “Insulin content in blood” value ([1]; 18 days after the completion of tetrapeptide administration) was 4.3 ± 0.5 mkIU/ml, the “Insulin content in blood” value ([1]; 28 days after the completion of tetrapeptide administration) was 4.1 ± 0.6 mkIU/ml and the “Insulin content in blood” value ([1]; 44 days after the completion of tetrapeptide administration) was 3.9 ± 1.1 mkIU/ml. For the same molecule, the “amount of insulin in the blood” value ([1]; all the following estimations, no insulin in control animals) was 13-18%, the “Insulin content in blood” value ([1]; initial level) was 23.8 ± 2.8 mkIU/ml and the “Glucose Concentration in the blood” value ([2]; 1 day upon completion of peptide administration (3 μg per rat, 11 days)) was 222.5 ± 10.3 mg %. The “Glucose Concentration in the blood” value [2, 7] was 254.5 ± 16.2 mg %, the “Glucose Concentration in the blood” value ([2]; 9 days upon completion of peptide administration) was 183.9 ± 10.5 mg % and the “Glucose Concentration in the blood” value [2, 8] was 333.6 ± 12.4 mg %. The “Glucose Concentration in the blood” value ([2]; 18 days upon completion of peptide administration) was 236.7 ± 10.3 mg %, the “Glucose Concentration in the blood” value ([2]; 28 days upon completion of peptide administration) was 221.5 ± 11.2 mg % and the “Glucose Concentration in the blood” value ([2]; 44 days upon completion of peptide administration) was 210.8 ± 9.3 mg %. The “Glucose Concentration in the blood” value ([2]; 58 days upon completion of peptide administration) was 198.9 mg %, the lethality ([2]; by the end of the investigation, 84 days after alloxan (control 70%)) was 36.4% and the “Glucose Concentration in the blood” value ([2]; initial level, before alloxan and before peptide) was 81.1 ± 3.8 mg %. For the same molecule, the “decrease of the blood glucose level” value ([2]; overall figure) was 38.4%, the “decrease of the blood glucose level” value ([2]; range in brackets) was 30-47.7% and the lethality decrease ([2]; versus control group) was “two-fold”. For the same molecule, the “Decrease in glucose content with respect to initial level” value ([3]; 30 minutes after insulin administration) was 44.2%, the “Glucose Concentration in blood” value ([3]; 30 minutes after insulin administration (0.3 units i.v.)) was 123.6 ± 8.3 mg % and the “Glucose Concentration in blood” value ([3]; initial level, 28 days after course completion) was 221.5 ± 11.2 mg %. For the same molecule, the “decrease of the glucose level after insulin administration as compared to the control group” value ([3]; rat, in vivo) was “two-fold”, the “decrease of daily insulin dose as compared to the initial level” value ([4]; Case No. 1) was 26 units and the coagulogram indices ([4]; Case No. 1, at discharge) was “pronounced improvement”. For the same molecule, the “Daily dose of insulin” value ([4]; Case No. 1, at discharge, on admission 82 units) was 56 units, the blood glucose level on an empty stomach ([4]; Case No. 1, type 2 diabetes, discharge on the 18th day, on admission 10 μmol/l) was 5.9 mM and the “decrease of daily insulin dose as compared to the initial level” value ([4]; Case No. 2) was 8 units. The “Daily norm of insulin” value ([4]; Case No. 2, at discharge, on admission 40 units) was 32 units, the blood glucose level on an empty stomach ([4]; Case No. 2, type 1 diabetes, discharge on the 15th day, on admission 17.8 μmol/l) was 3.4 mM and the “reduction of the dose of diabeton” value ([4]; Case No. 3) was “two-fold”. For the same molecule, the blood glucose level ([4]; Case No. 3, after the completion of the treatment course) was “remained within the norm”, the glucose level on an empty stomach ([4]; Case No. 3, type 2 diabetes, second day, 100 μg tablet twice a day with 2 diabeton tablets, on admission 11 μmol/l) was 6 mM and the “patients of the main group with decrease of insulin dose” value ([4]; none in control group) was 50%. For the same molecule, the “Decreased insulin dose necessary to achieve compensation, number of patients” value [4, 9] was 8, the “Increased insulin dose necessary to achieve compensation, number of patients” value [4, 9] was 2 and the “The same insulin dose necessary to achieve compensation, number of patients” value [4, 9] was 6. The “reduction of the insulin daily dose” value ([4]; on average, in 8 patients out of 16) was 8 units, the “reduction of the dose of insulin” value ([4]; patients who received tetrapeptide in tablets daily) was 25 units and the compensation [4, 10] was “full compensation”. For the same molecule, the “reduction of the dose of oral anti-diabetic preparations” value [4, 10] was “two-fold”, the “insulin dose increase to achieve compensation” value ([4]; the 1st patient) was 4 units and the “insulin dose increase to achieve compensation” value ([4]; the 2nd patient) was 14 units. For the same molecule, the “glucose concentration compared to the initial level (100%)” value (from here on “glucose concentration … (100%)”) ([5]; 5 min after glucose administration) was 142.9%, the “glucose concentration in blood, glucose tolerance test” value ([5]; 5 min after glucose administration (1 ml of 2% i.v.)) was 301.2 ± 10.5 and the “glucose concentration … (100%)” value [5, 11] was 97.3%. The “glucose concentration in blood, glucose tolerance test” value [5, 11] was 205.1 ± 11.8, the “glucose concentration … (100%)” value [5, 12] was 95.6% and the “glucose concentration in blood, glucose tolerance test” value [5, 12] was 201.5 ± 13.2. For the same molecule, the “glucose concentration … (100%)” value [5, 13] was 77.9%, the “glucose concentration in blood, glucose tolerance test” value [5, 13] was 164.2 ± 12.8 and the “glucose concentration in blood, glucose tolerance test” value ([5]; initial level, 44 days after course completion) was 210.8 ± 9.3. The toxicity [6] was “non-toxic”.
